The values below come from US9040506B2, “7,11-methanocycloocta [B] quinoline derivative as highly functionalizable acetylcholinesterase inhibitors” (priority 2010, dated 2015).

Like-named read-outs stand apart in the source and are kept apart here.

Assay [1] concerns the target T1, AChE (Homo sapiens, UniProt P22303). Nature of the assay: AChE inhibition, general statements. Type of assay: biochemical.
In the next assay the target is rh-AChE (Homo sapiens, UniProt P22303). Nature of the assay: biochemical. Particulars: read-out: IC50 rh-AChE.
Chain of rh-AChE (P22303 32-614): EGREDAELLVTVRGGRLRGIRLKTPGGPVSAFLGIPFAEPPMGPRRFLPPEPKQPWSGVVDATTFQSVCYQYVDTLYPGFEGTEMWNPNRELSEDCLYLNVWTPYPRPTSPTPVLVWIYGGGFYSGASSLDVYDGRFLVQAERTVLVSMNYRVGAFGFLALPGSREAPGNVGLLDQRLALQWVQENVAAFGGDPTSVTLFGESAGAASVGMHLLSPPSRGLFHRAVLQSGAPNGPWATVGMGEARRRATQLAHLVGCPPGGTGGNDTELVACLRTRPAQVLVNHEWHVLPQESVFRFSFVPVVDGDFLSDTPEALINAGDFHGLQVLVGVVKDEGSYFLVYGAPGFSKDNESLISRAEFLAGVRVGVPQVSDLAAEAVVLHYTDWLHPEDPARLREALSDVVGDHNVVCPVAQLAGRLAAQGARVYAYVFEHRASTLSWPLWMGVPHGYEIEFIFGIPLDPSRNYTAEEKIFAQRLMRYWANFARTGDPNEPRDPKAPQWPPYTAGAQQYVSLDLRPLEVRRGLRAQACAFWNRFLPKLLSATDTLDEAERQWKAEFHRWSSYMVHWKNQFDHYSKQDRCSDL
Another assay has as its target T2, erythrocyte h-AChE (Homo sapiens, UniProt P22303).
T2 construct: from tissue; host or cells: human erythrocytes
Nature of the assay: IC50 erythrocyte h-AChE. The class given is biochemical.

In a further assay the target is rh-BuChE (Homo sapiens, UniProt P06276). Nature of the assay: IC50 rh-BuChE. The class given is biochemical.
Chain of rh-BuChE (P06276 29-602): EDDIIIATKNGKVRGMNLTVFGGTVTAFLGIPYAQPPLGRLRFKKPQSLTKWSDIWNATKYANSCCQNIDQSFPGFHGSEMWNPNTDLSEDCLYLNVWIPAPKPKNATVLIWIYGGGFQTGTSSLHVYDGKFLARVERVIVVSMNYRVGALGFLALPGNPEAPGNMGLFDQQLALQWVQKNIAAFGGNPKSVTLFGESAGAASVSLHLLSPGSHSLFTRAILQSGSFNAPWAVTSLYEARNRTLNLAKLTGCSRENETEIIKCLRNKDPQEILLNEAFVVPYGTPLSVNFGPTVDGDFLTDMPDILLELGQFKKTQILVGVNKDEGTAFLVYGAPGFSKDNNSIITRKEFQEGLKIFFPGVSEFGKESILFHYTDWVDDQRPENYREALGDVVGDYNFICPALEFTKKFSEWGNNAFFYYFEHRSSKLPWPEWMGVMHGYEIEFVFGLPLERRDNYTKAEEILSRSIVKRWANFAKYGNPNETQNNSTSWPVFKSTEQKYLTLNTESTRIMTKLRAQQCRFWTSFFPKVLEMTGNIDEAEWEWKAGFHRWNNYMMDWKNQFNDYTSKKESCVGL
For assay [2], the target named is T1, AChE. The note with it: Camps et al.; cited from earlier work.
The mark [3] stands for this setting: read-out: IC50 erythrocyte h-AChE.

T2 sequence (P22303 32-617 isoform P22303-2 limits assumed): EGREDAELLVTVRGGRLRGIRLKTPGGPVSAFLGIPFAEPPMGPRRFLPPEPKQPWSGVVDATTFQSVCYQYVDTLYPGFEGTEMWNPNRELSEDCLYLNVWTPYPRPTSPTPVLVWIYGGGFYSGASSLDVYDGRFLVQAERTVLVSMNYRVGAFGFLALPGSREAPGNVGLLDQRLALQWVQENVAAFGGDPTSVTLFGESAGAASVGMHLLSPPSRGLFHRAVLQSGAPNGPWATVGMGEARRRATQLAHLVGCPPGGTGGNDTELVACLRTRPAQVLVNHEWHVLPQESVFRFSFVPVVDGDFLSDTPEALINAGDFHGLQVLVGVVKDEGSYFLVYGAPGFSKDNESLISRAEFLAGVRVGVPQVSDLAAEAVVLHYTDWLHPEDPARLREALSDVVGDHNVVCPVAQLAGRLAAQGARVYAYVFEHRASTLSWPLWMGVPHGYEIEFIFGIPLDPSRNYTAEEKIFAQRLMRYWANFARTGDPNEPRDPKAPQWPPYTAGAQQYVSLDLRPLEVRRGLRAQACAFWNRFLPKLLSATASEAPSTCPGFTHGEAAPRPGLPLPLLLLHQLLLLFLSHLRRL
T1 sequence (P22303 32-614): as the sequence (P22303 32-614) above

Regarding `Nc1c2c(nc3cc(Cl)ccc13)CC1C=C(CCO)CC2C1` (centres unmarked) [HUP 2, 2-(12-Amino-3-chloro-6,7,10,11-tetrahydro-7,11-methanocycloocta[b]quinolin-9-yl) Ethanol], the “activity compared with Huprine X” value on AChE [1] is on record as “as high as the Huprine X”. In addition, the IC50 (commonly the concentration that gives 50% inhibition) at rh-AChE was found to be 1.05 ± 0.13 nM; on erythrocyte h-AChE (setting [3]) it was 6.15 nM; on rh-BuChE (read-out: IC50 rh-BuChE), 1240 nM.
With `COCCC1=CC2Cc3nc4cc(Cl)ccc4c(N)c3C(C1)C2` (centres unmarked) [HUP 6, 3-Chloro-9-(2-methoxyethyl)-6,7,10,11-tetrahydro-7,11-methanocycloocta[b]quinolin-12-amine], the IC50 on rh-AChE stood at 1.75 ± 0.21 nM; at erythrocyte h-AChE (setting [3]) it was 4.5 nM; at rh-BuChE (read-out: IC50 rh-BuChE) it was 401 ± 26 nM.
Turning to `Nc1c2c(nc3cc(Cl)ccc13)CC1C=C(CCCl)CC2C1` (centres unmarked) [HUP 9, 3-Chloro-9-(2-chloroethyl)-6,7,10,11-tetrahydro-7,11-methanocycloocta[b]quinolin-12-amine Trifluoroacetic Acid], the results for the IC50 on rh-AChE, on erythrocyte h-AChE (setting [3]) and on rh-BuChE (read-out: IC50 rh-BuChE) were 3.56 ± 0.2 nM, 5.09 nM and 207 ± 12 nM, respectively.
Turning to `C=CC(=O)OCCC1=CC2Cc3nc4cc(Cl)ccc4c(N)c3C(C1)C2` (centres unmarked) [HUP 18, 2-(12-Amino-3-chloro-6,7,10,11-tetrahydro-7,11-methanocycloocta[b]quinolin-9-yl)ethyl Acrylate], the results for the IC50 on rh-AChE, at erythrocyte h-AChE (setting [3]) and on rh-BuChE (read-out: IC50 rh-BuChE) were 20.4 ± 4.6 nM, 129 nM and 207 ± 16 nM, respectively.
Regarding `CCOC(=O)C(CCC1=CC2Cc3nc4cc(Cl)ccc4c(N)c3C(C1)C2)C(=O)OCC` (centres unmarked) [HUP 27, Diethyl[2-(12-Amino-3-chloro-6,7,10,11-tetrahydro-7,11-methanocycloocta[b]quinolin-9-yl)ethyl]malonate], the IC50 at rh-AChE was 6.09 ± 0.42 nM; on erythrocyte h-AChE, 46.4 nM; at rh-BuChE, 319 ± 2 nM.
The matching figures for `COC(=O)CCCC1=CC2Cc3nc4cc(Cl)ccc4c(N)c3C(C1)C2` (centres unmarked) [HUP 29, Methyl 4-(12-Amino-3-chloro-6,7,10,11-tetrahydro-7,11-methanocycloocta[b]quinolin-9-yl)butanoate]: 14.6 ± 1.7 nM, 37.6 nM and 124 ± 11 nM.
For the molecule `Nc1c2c(nc3cc(Cl)ccc13)CC1C=C(CCCCO)CC2C1` (centres unmarked) [HUP 30, 4-(12-Amino-3-chloro-6,7,10,11-tetrahydro-7,11-methanocycloocta[b]quinolin-9-yl)butan-1-ol], the IC50 on rh-AChE was found to be 22.4 ± 1.5 nM; at erythrocyte h-AChE (setting [3]), 50.1 nM; at rh-BuChE (read-out: IC50 rh-BuChE), 343 ± 43 nM.
The matching figures for `CS(=O)(=O)OCCCCC1=CC2Cc3nc4cc(Cl)ccc4c(N)c3C(C1)C2` (centres unmarked) [HUP 31, 4-(12-Amino-3-chloro-6,7,10,11-tetrahydro-7,11-methanocycloocta[b]quinolin-9-yl)butyl Methanesulfonate]: 4.76 ± 1.68 nM, 13.3 nM and 243 ± 12 nM.
Regarding `[N-]=[N+]=NCCCCC1=CC2Cc3nc4cc(Cl)ccc4c(N)c3C(C1)C2` (centres unmarked) [HUP 32, 9-(4-Azidobutyl)-3-chloro-6,7,10,11-tetrahydro-7,11-methanocycloocta[b]quinolin-12-amine], the figures for the IC50 on rh-AChE, on erythrocyte h-AChE (setting [3]) and at rh-BuChE (read-out: IC50 rh-BuChE) were 13.1 ± 4.7 nM, 68.1 nM and 260 ± 12 nM, respectively.
The matching figures for `COC(=O)c1cn(CCCCC2=CC3Cc4nc5cc(Cl)ccc5c(N)c4C(C2)C3)nn1` (centres unmarked) [HUP 33, Methyl 1-[4-(12-Amino-3-chloro-6,7,10,11-tetrahydro-7,11-methanocycloocta[b]quinolin-9-yl)butyl]-1H-1,2,3-triazole-4-carboxylate]: 0.34 ± 0.12 nM, 10.7 nM and 291 ± 25 nM.
On the same counts, the results for `Nc1c2c(nc3cc(Cl)ccc13)CC1C=C(CCCCn3cc(CO)nn3)CC2C1` (centres unmarked) [HUP 34, {1-[4-(12-Amino-3-chloro-6,7,10,11-tetrahydro-7,11-methanocycloocta[b]quinolin-9-yl)butyl]-1H-1,2,3-triazol-4-yl}methanol Trifluoroacetic Acid] are 0.26 ± 0.08 nM, 6.91 nM and 213 ± 18 nM.
Take `CCC1=CC2Cc3nc4cc(Cl)ccc4c(N)c3[C@@H](C1)C2` [Huprine X]: the IC50 at AChE [2] is approximately 1 nM.
